Data as given in ChEMBL document CHEMBL5518238, “Structure-Activity Relationship (SAR) Studies of Novel Monovalent AR/AR-V7 Dual Degraders with Potent Efficacy against Advanced Prostate Cancer” (J Med Chem, 2024).
Activity calls are given as the source filed them. No cut-off for these calls is given here.

Columns and labels:
[1] = Antiproliferative activity against human L02 cells assessed as inhibition of cell growth incubated for 48 hrs by CCK-8 assay; format: toxicity, cell-based
[2] = test system: Androgen receptor (Homo sapiens), P10275 [UNDEFINED MUTATION]; experiment: Induction of AR-V7 degradation in human 22Rv1 cells at 10 uM incubated for 24 hrs in presence of CHX by Western blot analysis; format: cell-based
[3] = target: T1, Androgen receptor (Homo sapiens) (UniProt P10275); experiment: Induction of AR degradation in human 22Rv1 cells at 20 uM incubated for 24 hrs in presence of Bortezomib by Western blot analysis; format: cell-based
T1 sequence (whole entry): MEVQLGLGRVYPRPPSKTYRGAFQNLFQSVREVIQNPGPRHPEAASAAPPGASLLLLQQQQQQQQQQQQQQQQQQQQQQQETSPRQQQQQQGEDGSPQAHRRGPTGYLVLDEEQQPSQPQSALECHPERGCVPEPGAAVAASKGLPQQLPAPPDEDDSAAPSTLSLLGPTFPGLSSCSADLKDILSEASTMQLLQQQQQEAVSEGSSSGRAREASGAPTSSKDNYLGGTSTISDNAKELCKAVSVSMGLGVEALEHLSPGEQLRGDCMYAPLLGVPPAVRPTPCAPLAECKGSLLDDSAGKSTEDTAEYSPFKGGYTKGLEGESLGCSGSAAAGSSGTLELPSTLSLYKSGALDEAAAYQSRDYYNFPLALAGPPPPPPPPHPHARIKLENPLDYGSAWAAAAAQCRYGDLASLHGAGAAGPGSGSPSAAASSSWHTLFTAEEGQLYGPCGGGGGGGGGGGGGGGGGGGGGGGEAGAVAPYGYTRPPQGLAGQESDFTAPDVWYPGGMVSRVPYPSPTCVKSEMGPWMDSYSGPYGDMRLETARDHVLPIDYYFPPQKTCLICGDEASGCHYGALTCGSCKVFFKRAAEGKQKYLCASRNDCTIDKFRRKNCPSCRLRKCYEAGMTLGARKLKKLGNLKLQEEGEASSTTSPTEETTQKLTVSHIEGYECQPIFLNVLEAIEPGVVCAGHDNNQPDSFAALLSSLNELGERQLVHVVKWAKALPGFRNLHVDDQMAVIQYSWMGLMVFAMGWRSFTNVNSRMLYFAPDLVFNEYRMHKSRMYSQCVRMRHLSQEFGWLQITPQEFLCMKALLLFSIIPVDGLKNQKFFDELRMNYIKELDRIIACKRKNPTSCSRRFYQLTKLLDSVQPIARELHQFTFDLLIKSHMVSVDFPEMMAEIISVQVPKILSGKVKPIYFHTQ

[4] = test system: CWR22R; experiment: Effect on ER level in human 22Rv1 at 2.5 to 20 uM incubated for 24 hrs by Western blot analysis; format: functional, cell-based; details: dose 2.5-20 µM
[5] = target: T1, Androgen receptor (Homo sapiens); experiment: Induction of AR degradation in human 22Rv1 cells at 10 uM incubated for 24 hrs in presence of MDM2 by Western blot analysis; format: cell-based
[6] = test system: Androgen receptor (Homo sapiens), P10275 [UNDEFINED MUTATION]; experiment: Induction of AR-V7 degradation in human 22Rv1 cells at 10 uM incubated for 24 hrs in presence of […] by Western blot analysis; format: cell-based
[7] = test system: CWR22R; experiment: Downregulation of AR expression in human 22Rv1 cells at 5 uM incubated for 24 hrs by Western blot analysis; format: functional, cell-based
[8] = test system: CWR22R; experiment: Downregulation of FKBP5 mRNA expression in human 22Rv1 cells at 10 uM incubated for 24 hrs by qRT-PCR analysis; format: functional, cell-based
[9] = test system: CWR22R; experiment: Downregulation of BARD1 mRNA expression in human 22Rv1 cells at 10 uM incubated for 24 hrs by qRT-PCR analysis; format: functional, cell-based
[10] = test system: CWR22R; experiment: Downregulation of NCAPD3 mRNA expression in human 22Rv1 cells at 10 uM incubated for 24 hrs by qRT-PCR analysis; format: functional, cell-based
[11] = test system: CWR22R; experiment: Downregulation of NKX3-1 mRNA expression in human 22Rv1 cells at 10 uM incubated for 24 hrs by qRT-PCR analysis; format: functional, cell-based
[12] = test system: CWR22R; experiment: Downregulation of MYC mRNA expression in human 22Rv1 cells at 10 uM incubated for 24 hrs by qRT-PCR analysis; format: functional, cell-based
[13] = test system: CWR22R; experiment: Downregulation of P3H3 mRNA expression in human 22Rv1 cells at 10 uM incubated for 24 hrs by qRT-PCR analysis; format: functional, cell-based
[14] = test system: CWR22R; experiment: Downregulation of KLK3 mRNA expression in human 22Rv1 cells at 10 uM incubated for 24 hrs by qRT-PCR analysis; format: functional, cell-based
[15] = test system: CWR22R; experiment: Downregulation of PEG3 mRNA expression in human 22Rv1 cells at 10 uM incubated for 24 hrs by qRT-PCR analysis; format: functional, cell-based
[16] = test system: CWR22R; experiment: Downregulation of ACSL3 mRNA expression in human 22Rv1 cells at 10 uM incubated for 24 hrs by qRT-PCR analysis; format: functional, cell-based
[17] = test system: CWR22R; experiment: Induction of apoptosis in human 22Rv1 cells at 5 uM incubated for 24 hrs by Annexin V-FITC/PI staining based flow cytometric analysis (reference value: 3.70 %); format: functional
[18] = test system: CWR22R; experiment: Induction of apoptosis in human 22Rv1 cells assessed as effect on PARP1 level incubated for 24 hrs by Western blot analysis; format: functional, cell-based; details: dose <= 10.0 µM
[19] = Half life in Sprague-Dawley rat at 5 mg/kg, iv by LC-MS/MS analysis; format: ADME, organism-based; details: in vivo
[20] = AUC (0 to t) in Sprague-Dawley rat at 50 mg/kg, po by LC-MS/MS analysis; format: ADME, organism-based; details: in vivo
[21] = AUC (0 to t) in Sprague-Dawley rat at 5 mg/kg, iv by LC-MS/MS analysis; format: ADME, organism-based; details: in vivo
[22] = AUC (0 to infinity) in Sprague-Dawley rat at 5 mg/kg, iv by LC-MS/MS analysis; format: ADME, organism-based; details: in vivo
[23] = MRT (0 to infinity) in Sprague-Dawley rat at 5 mg/kg, iv by LC-MS/MS analysis; format: ADME, organism-based; details: in vivo
[24] = Toxicity in NSG mouse xenografted with human 22Rv1 cells assessed as effect on body weight at 30 mg/kg, IG administered once daily for 21 days; format: organism-based, CWR22R; details: in vivo, po, 504 h, time 21 day
[25] = test system: CWR22R; experiment: Antitumor activity against human 22Rv1 cells xenografted in NSG mouse assessed as change in tumor volume at 30 mg/kg, IG administered once daily for 21 days; format: functional, organism-based; details: time 21.0 day
[26] = Toxicity in NSG mouse xenografted with human 22Rv1 cells assessed as liver damage t at 30 mg/kg, IG administered once daily for 21 days by H and E staining based analysis; format: organism-based, CWR22R; details: in vivo, po, 504 h, time 21 day
[27] = Toxicity in NSG mouse xenografted with human 22Rv1 cells assessed as spleen damage t at 30 mg/kg, IG administered once daily for 21 days by H and E staining based analysis; format: organism-based, CWR22R; details: in vivo, po, 504 h, time 21 day
[28] = Toxicity in NSG mouse xenografted with human 22Rv1 cells assessed as lung damage t at 30 mg/kg, IG administered once daily for 21 days by H and E staining based analysis; format: organism-based, CWR22R; details: in vivo, po, 504 h, time 21 day
[29] = Toxicity in NSG mouse xenografted with human 22Rv1 cells assessed as kidney damage t at 30 mg/kg, IG administered once daily for 21 days by H and E staining based analysis; format: organism-based, CWR22R; details: in vivo, po, 504 h, time 21 day

**Q.** What does the source list for `CC1(C)C(=O)N(c2ccc(C#N)c(C(F)(F)F)c2)C(=O)N1CCNc1ccc(F)c2ncccc12`?
**A.** IC50 at 48 h [1]: > 100 µM; Activity [2]: Active; Activity [3]: Active; Activity [4]: Active; Activity [5]: Active; Activity [6]: Active; Activity [7]: Active; Activity [8]: Active; Activity [9]: Active; Activity [10]: Active; Activity [11]: Active; Activity [12]: Active; Activity [13]: Active; Activity [14]: Active; Activity [15]: Active; Activity [16]: Active; Activity [17]: 18.81%; Activity [18]: Dose-Dependent Effect; half-life [19]: 1.4 h; AUC(0-t) [20]: 3060 ng·h/mL; AUC(0-t) [21]: 2870 ng·h/mL; AUC(0-inf) [22]: 2920 ng·h/mL; MRT [23]: 4.1 h; Activity [24]: Non-Toxic; Activity [25]: Active; Activity [26]: Non-Toxic; Activity [27]: Non-Toxic; Activity [28]: Non-Toxic; Activity [29]: Non-Toxic
